Experimental data published in patent publication US20100069340A1, “PHARMACEUTICAL COMPOSITIONS OF AN SRC KINASE INHIBITOR AND AN AROMATASE INHIBITOR” (Wyeth, priority 2008, published 2010).

Assays:
[1] = system: MCF7; assay: Cell proliferation assay (CellTiter Glo), MCF7; type: cell-based
Protocol: (§1) Cell lines were obtained from ATCC. Estrogen was obtained from SIGMA, 4-hydroxytamoxifen was obtained from SIGMA, Bosutinib was used for these studies. Charcoal-stripped serum and phenol red-free medium was obtained from Invitrogen. CellTiter Glo was obtained from Promega.
(§2) Cell cultures. Proliferation assays with cells in complete fetal calf serum were performed with medium containing phenol red. For all assays examining estrogen-dependence, cells were cultured in phenol red-free medium; DMEM/F12 (MCF7), RPMI1640 (MDA-MB-361, T47D) MEM (BT20, MDA-MB-231) McCoys5A modified (SKBR3), Leibowitz' L15 medium supplemented with 10 ng/mL insulin (MDA-MB-435 and MDA-MB-468) with 10% fetal bovine serum supplemented with glutamine and gentamicin. For proliferation assays, trypsinized cells were subjected to three cycles of centrifugation and resuspension in phenol red-free medium supplemented with charcoal stripped medium (5% final), glutamine and Pen/Strep. Cells were plated on day 0, with or without estrogen (10 nM final concentration). On day 1, 4-hydroxytamoxifen and SKI-606 or DMSO were added as a serial dilution. Cells were incubated for 7 days, after which CellTiter Glo (Promega) was added as recommended by the manufacturer. After mixing and two hours incubation on the bench, plates were read on an Envision reader. […] The 10 uM data point was dropped for these two lines since there was a clear plateau prior to the sharp drop in luminescence observed at 10 uM compound. The IC50 was calculated using a floating minima corresponding to the lowest luminescence value at 5 uM.
(§3) Cell proliferation assays were performed in two formats; a three day proliferation assay in fully supplemented medium with phenol red, and a 7 day proliferation assay in phenol red free medium supplemented with charcoal-stripped medium. […] ER positive T47D cells were slightly more sensitive to SKI-606 in the presence of estrogen. BT20 cells were equally sensitive to SKI-606 in stripped serum medium, regardless of whether estrogen was present.
(§4) Proliferation data for SKI-606 in various breast tumor lines in complete medium (10% FCS) and charcoal stripped serum with no phenol red (no E2, E2) with and without 10 nM estrogen. The complete medium data were obtained in 3-day assays, while stripped serum assays were extended for 7 days with one change of medium at day 5. The IC50 values for the BT20 line was calculated using the “plateau” cell number evident at 5 μM SKI-606.

[2] = system: MDA-MB-361; assay: Cell proliferation assay (CellTiter Glo), MDA-MB-361; type: cell-based
Protocol: as §1, §2, §3, §4

Substance: 4-hydroxytamoxifen
- estrogen-independent cell proliferation ([1]; MCF7, absence of estrogen): inhibits
- effect on estrogen-stimulated proliferation ([1]; MCF7, presence of estrogen): inhibited in a dose-dependent manner
- cell proliferation in the absence of estrogen ([2]; MDA-MB-361, absence of estrogen): little effect
- effect on estrogen-stimulated proliferation ([2]; MDA-MB-361, presence of estrogen): inhibited in a dose-dependent manner
